In ChEMBL document CHEMBL1122874, “Orally absorbable cephalosporin antibiotics. 1. Structure-activity relationships of benzothienyl- and naphthylglycine derivatives of 7-aminodeacetoxycephalosporanic acid” (1985):
Values after ≈ are worked out from the molar mass of the structure shown.

What was measured:
Staphylococcus aureus [1] = assay: Antibacterial activity against methicillin resistant Staphylococcus aureus S13E.; assay type: functional
Streptococcus pyogenes [2] = assay: Antibacterial activity against Streptococcus pyogenes C203.; assay type: functional
Staphylococcus aureus [3] = assay: Antibacterial activity against penicillin G sensitive Staphylococcus aureus V41; assay type: functional
Streptococcus = assay: Antibacterial activity against Streptococcus group D X66.; assay type: functional
[4] = tested on: Staphylococcus epidermidis; assay: Antibacterial activity against Staph. epidermis EP11; assay type: functional
Haemophilus influenzae [5] = assay: Antibacterial activity against sensitive Haemophilus influenzae C.L.; assay type: functional
Staphylococcus aureus [6] = assay: Antibacterial activity against penicillin G sensitive Staphylococcus aureus X1.1.; assay type: functional
Haemophilus influenzae [7] = assay: Antibacterial activity against resistant Haemophilus influenzae 76.; assay type: functional
Streptococcus pneumoniae [8] = assay: Antibacterial activity against Streptococcus pneumoniae Park.
Staphylococcus aureus [9] = assay: Antibacterial activity against methicillin resistant Staphylococcus aureus X400; assay type: functional
Streptococcus pyogenes [10] = assay: Antibacterial activity in mice infected with Streptococcus pyogenes C203 by subcutaneous administration; assay type: functional
Streptococcus pneumoniae [11] = assay: Antibacterial activity in mice infected with Streptococcus pneumoniae Park1 by subcutaneous administration; assay type: functional
Staphylococcus aureus [12] = assay: Antibacterial activity in mice infected with Staphylococcus aureus 3055; assay type: functional
Streptococcus pneumoniae [13] = assay: Antibacterial activity in mice infected with Streptococcus pneumoniae Park1; assay type: functional
Staphylococcus aureus [14] = assay: Antibacterial activity in mice infected with Staphylococcus aureus 3055 by subcutaneous administration; assay type: functional
Staphylococcus aureus [15] = assay: Antibacterial activity in mice infected with Staphylococcus aureus 3055 by oral administration; assay type: functional
Streptococcus pyogenes [16] = assay: Antibacterial activity in mice infected with Streptococcus pyogenes C203; assay type: functional
Streptococcus pyogenes [17] = assay: Antibacterial activity in mice infected with Streptococcus pyogenes C203 by oral administration; assay type: functional
Streptococcus pneumoniae [18] = assay: Antibacterial activity in mice infected with Streptococcus pneumoniae Park1 by oral administration; assay type: functional
Streptococcus pneumoniae [19] = assay: Antibacterial activity in mice infected with Streptococcus pneumoniae Park1 after oral administration; assay type: functional
Streptococcus pneumoniae [20] = assay: Antibacterial activity in mice infected with Streptococcus pneumoniae Park1 after subcutaneous administration; assay type: functional
Staphylococcus aureus [21] = assay: Antibacterial activity in mice infected with Staphylococcus aureus 3055 after oral administration; assay type: functional
Streptococcus pyogenes [22] = assay: Antibacterial activity in mice infected with Streptococcus pyogenes C203 after oral administration; assay type: functional
Staphylococcus aureus [23] = assay: Antibacterial activity in mice infected with Staphylococcus aureus 3055 after subcutaneous administration; assay type: functional
Streptococcus pyogenes [24] = assay: Antibacterial activity in mice infected with Streptococcus pyogenes C203 after subcutaneous administration; assay type: functional

| SMILES | MIC (Staphylococcus aureus [1]) | MIC (Streptococcus pyogenes [2]) | MIC (Staphylococcus aureus [3]) | MIC (Streptococcus) | MIC [4] | MIC (Haemophilus influenzae [5]) | MIC (Staphylococcus aureus [6]) | MIC (Haemophilus influenzae [7]) | MIC (Streptococcus pneumoniae [8]) | MIC (Staphylococcus aureus [9]) | MIC (Staphylococcus aureus [12]) | MIC (Streptococcus pyogenes [16]) | also measured |
| --- | --- | --- | --- | --- | --- | --- | --- | --- | --- | --- | --- | --- | --- |
| CC1=C(C(=O)O)N2C(=O)C(NC(=O)[C@@H](N)c3cc4c(s3)CCCC4)C2SC1 (some centres undefined) | 8 µg/mL (≈ 19.6 µM) | 0.06 µg/mL (≈ 0.147 µM) | 16 µg/mL (≈ 39.3 µM) | 64 µg/mL (≈ 157 µM) | 2 µg/mL (≈ 4.91 µM) | 16 µg/mL (≈ 39.3 µM) | 0.25 µg/mL (≈ 0.613 µM) | 4 µg/mL (≈ 9.82 µM) | 0.25 µg/mL (≈ 0.613 µM) | – | – | – | – |
| CC1=C(C(=O)O)N2C(=O)C(NC(=O)[C@H](N)c3cccc4ccccc34)C2SC1 (some centres undefined) | 32 µg/mL (≈ 80.5 µM) | 2 µg/mL (≈ 5.03 µM) | 32 µg/mL (≈ 80.5 µM) | 128 µg/mL (≈ 322 µM) | 8 µg/mL (≈ 20.1 µM) | 8 µg/mL (≈ 20.1 µM) | 1 µg/mL (≈ 2.52 µM) | 2 µg/mL (≈ 5.03 µM) | 2 µg/mL (≈ 5.03 µM) | 64 µg/mL (≈ 161 µM) | – | – | – |
| CC1=C(C(=O)O)N2C(=O)C(NC(=O)[C@H](N)c3csc4cc(Cl)c(Cl)cc34)C2SC1 (some centres undefined) | 4 µg/mL (≈ 8.47 µM) | 0.25 µg/mL (≈ 0.529 µM) | 8 µg/mL (≈ 16.9 µM) | – | 4 µg/mL (≈ 8.47 µM) | 4 µg/mL (≈ 8.47 µM) | 1 µg/mL (≈ 2.12 µM) | 1 µg/mL (≈ 2.12 µM) | 0.5 µg/mL (≈ 1.06 µM) | 64 µg/mL (≈ 135 µM) | – | – | – |
| CC1=C(C(=O)O)N2C(=O)C(NC(=O)[C@H](N)c3csc4ccc(Cl)cc34)C2SC1 (some centres undefined) | 2 µg/mL (≈ 4.57 µM) | 0.125 µg/mL (≈ 0.285 µM) | 4 µg/mL (≈ 9.13 µM) | 64 µg/mL (≈ 146 µM) | 4 µg/mL (≈ 9.13 µM) | – | 0.5 µg/mL (≈ 1.14 µM) | 0.5 µg/mL (≈ 1.14 µM) | 0.25 µg/mL (≈ 0.571 µM) | 16 µg/mL (≈ 36.5 µM) | – | – | – |
| COc1ccc2cc([C@@H](N)C(=O)NC3C(=O)N4C(C(=O)O)=C(C)CSC34)ccc2c1 (some centres undefined) | 16 µg/mL (≈ 37.4 µM) | 0.125 µg/mL (≈ 0.292 µM) | 16 µg/mL (≈ 37.4 µM) | – | 4 µg/mL (≈ 9.36 µM) | 16 µg/mL (≈ 37.4 µM) | 0.25 µg/mL (≈ 0.585 µM) | 4 µg/mL (≈ 9.36 µM) | 0.125 µg/mL (≈ 0.292 µM) | 64 µg/mL (≈ 150 µM) | – | – | – |
| CC1=C(C(=O)O)N2C(=O)C(NC(=O)[C@H](N)c3csc4ccc(F)cc34)C2SC1 (some centres undefined) | 8 µg/mL (≈ 19 µM) | 0.25 µg/mL (≈ 0.593 µM) | 8 µg/mL (≈ 19 µM) | 128 µg/mL (≈ 304 µM) | 8 µg/mL (≈ 19 µM) | 4 µg/mL (≈ 9.49 µM) | 1 µg/mL (≈ 2.37 µM) | 4 µg/mL (≈ 9.49 µM) | 1 µg/mL (≈ 2.37 µM) | 64 µg/mL (≈ 152 µM) | – | – | – |
| CC1=C(C(=O)O)N2C(=O)C(NC(=O)[C@@H](N)c3cc4cc(Cl)ccc4s3)C2SC1 (some centres undefined) | 16 µg/mL (≈ 36.5 µM) | 0.125 µg/mL (≈ 0.285 µM) | 8 µg/mL (≈ 18.3 µM) | – | 2 µg/mL (≈ 4.57 µM) | 64 µg/mL (≈ 146 µM) | 0.25 µg/mL (≈ 0.571 µM) | 4 µg/mL (≈ 9.13 µM) | 0.25 µg/mL (≈ 0.571 µM) | – | – | – | – |
| CC1=C(C(=O)O)N2C(=O)C(NC(=O)[C@@H](N)c3cc4ccccc4s3)C2SC1 (some centres undefined) | – | 0.5 µg/mL (≈ 1.24 µM) | – | – | 2 µg/mL (≈ 4.96 µM) | 32 µg/mL (≈ 79.3 µM) | 0.5 µg/mL (≈ 1.24 µM) | 1 µg/mL (≈ 2.48 µM) | 2 µg/mL (≈ 4.96 µM) | – | 0.25 µg/mL (≈ 0.62 µM) | 0.25 µg/mL (≈ 0.62 µM) | ED50 (Streptococcus pyogenes [10]): 2.6 mg/kg; ED50 (Streptococcus pneumoniae [11]): 15 mg/kg; MIC (Streptococcus pneumoniae [13]): 1 µg/mL (≈ 2.48 µM); ED50 (Staphylococcus aureus [14]): 0.13 mg/kg; ED50 (Staphylococcus aureus [15]): 0.13 mg/kg; ED50 (Streptococcus pyogenes [17]): 2.3 mg/kg; ED50 (Streptococcus pneumoniae [18]): 31 mg/kg |
| CC1=C(C(=O)O)N2C(=O)C(NC(=O)[C@@H](N)c3csc4ccccc34)C2SC1 (some centres undefined) | – | 0.5 µg/mL (≈ 1.24 µM) | – | 128 µg/mL (≈ 317 µM) | – | 2 µg/mL (≈ 4.96 µM) | 1 µg/mL (≈ 2.48 µM) | 0.5 µg/mL (≈ 1.24 µM) | 0.5 µg/mL (≈ 1.24 µM) | – | 1 µg/mL (≈ 2.48 µM) | 0.5 µg/mL (≈ 1.24 µM) | ED50 (Streptococcus pneumoniae [19]): 16 mg/kg; MIC (Streptococcus pneumoniae [13]): 1 µg/mL (≈ 2.48 µM); ED50 (Streptococcus pneumoniae [20]): 18 mg/kg; ED50 (Staphylococcus aureus [21]): 0.6 mg/kg; ED50 (Streptococcus pyogenes [22]): 1.7 mg/kg; ED50 (Staphylococcus aureus [23]): 0.4 mg/kg; ED50 (Streptococcus pyogenes [24]): 2.3 mg/kg |
| N[C@@H](C(=O)N[C@@H]1C(=O)N2C(C(=O)O)=C(Cl)CS[C@H]12)c1ccccc1 [CEFACLOR ANHYDROUS] | – | – | – | – | – | – | – | – | – | – | 1 µg/mL (≈ 2.72 µM) | 0.25 µg/mL (≈ 0.68 µM) | ED50 (Streptococcus pneumoniae [11]): 11.5 mg/kg; MIC (Streptococcus pneumoniae [13]): 2 µg/mL (≈ 5.44 µM); ED50 (Staphylococcus aureus [14]): 0.03 mg/kg; ED50 (Staphylococcus aureus [15]): 0.13 mg/kg; ED50 (Streptococcus pneumoniae [18]): 10.7 mg/kg; ED50 (Streptococcus pyogenes [22]): 0.8 mg/kg; ED50 (Streptococcus pyogenes [24]): 1.4 mg/kg |
| CC1=C(C(=O)O)N2C(=O)[C@@H](NC(=O)[C@H](N)c3ccccc3)[C@H]2SC1 [CEPHALEXIN ANHYDROUS] | – | 0.5 µg/mL (≈ 1.44 µM) | – | – | – | – | 4 µg/mL (≈ 11.5 µM) | – | 1 µg/mL (≈ 2.88 µM) | – | 1 µg/mL (≈ 2.88 µM) | 0.5 µg/mL (≈ 1.44 µM) | ED50 (Streptococcus pneumoniae [11]): 23 mg/kg; ED50 (Staphylococcus aureus [14]): 0.2 mg/kg; ED50 (Staphylococcus aureus [15]): 0.34 mg/kg; ED50 (Streptococcus pneumoniae [18]): 51 mg/kg; ED50 (Streptococcus pyogenes [22]): 3.3 mg/kg; ED50 (Streptococcus pyogenes [24]): 2.9 mg/kg |
